Test results: US20240150719A1, “MAGNETIC SHEAR BIOREACTOR APPARATUS AND METHODS” (THE BOARD OF REGENTS OF THE UNIVERSITY OF TEXAS SYSTEM, priority 2021, published 2024)
“Also recorded” adds a separate entry of the source.

How the values were obtained:
COX2 protein = experiment: Western blot of COX2 protein in fluid shear stressed human MSCs; type: cell-based; conditions: BAY11-7085 10 μM; human MSC, 8 hours of fluid shear stress
Procedure: FIG. 11 illustrates representative Western blots showing increased intracellular COX2 protein, which is reduced by NF-kB antagonist BAY11-7085 (10 μM).
A pilot study was conducted to provide proof of principle that fluid shear stress can be used to condition stem cells, alter gene expression, and enhance functional activities. To exemplify the conditioning activity of shear stress of the type provided by the present system, but on a much smaller analytical scale, force (shear stress) was applied using custom fabricated slides or IBIDI® small-scale microfluidics channel slides obtained from IBIDI, LLC. (Verona, WI, USA). Human samples were harvested from bone marrow (BM), amniotic fluid (AF), or adipose (AD) tissue, processed for isolation and expansion of hMSC, and stored frozen. […] The number of live cells present was determined using trypan blue dye exclusion. Live cell counts were determined on a hemacytometer and the cells were resuspended to obtain the desired concentration for each assay (see Table 1). […]
Similarly it was determined utilizing commercially available ELISAs that the media from human MSCs cultures that had been subject to fluid shear stress also contained immunomodulatory proteins, such as prostaglandin E2. […]

[1] = tested on: TNF-α secretion by splenocytes; experiment: TNF-α cytokine suppression assay: MSCs in static co-culture with LPS- or PHA-activated splenocytes; type: cell-based, mouse; conditions: for ability of shear treated MSC to suppress TNF-α production: inhibitor 10 μM, six MSC donor lines, compared to Static Vehicle
Procedure: FIG. 12 illustrates TNF-αcytokine suppression assays that highlight functional enhancement of MSC immunomodulation. Human MSCs preconditioned by mechanical force (15 dyne/cm2 shear stress for 3 hours) are placed in static co-culture with lipopoly-saccharide (LPS) or phytohaemagglutinin (PHA)-activated splenocytes including macrophages, neutrophils, NK, B, and T cells. […] Lower values correspond to greater anti-inflammatory potency. hBM MSC, human bone marrow MSC; hAF MSC, amniotic fluid MSC; hAD MSC, adipose-derived MSC. P-values calculated by paired t-test, equal variance.
Asterisks indicate p<0.001 compared to Static Vehicle. n=6 indicates six different MSC donor lines included in data shown.
(§1) Similarly it was determined utilizing commercially available ELISAs that the media from human MSCs cultures that had been subject to fluid shear stress also contained immunomodulatory proteins, such as prostaglandin E2. In addition, Western blotting confirmed elevated protein levels (translation) of COX2, TSG6, and IL1RN. Actin protein expression levels, which are constant, were used as a control for baseline protein expression. […] It was also determined that this induction could be abrogated by the addition of 10 uM of the NF-kappa B antagonist BAY11-7085 (FIG. 11). Furthermore by utilizing commercially available ELISAs, it was determined that the media from human MSCs cultures that had been subject to fluid shear stress for as little as 3 hours had immunosuppressive activity, as evidenced by the 10-50% reduction in TNF-α when treated hMSCs were co-cultured with activated immune cells from the spleen (FIG. 12).

human amniotic fluid MSC = experiment: Priming agents combined with shear stress: anti-inflammatory signaling in human amniotic MSC line; type: cell-based
Procedure: FIG. 14 illustrates that priming agents complement shear-induced anti-inflammatory signaling. Darkened bars represent treatment combinations that indicate a substantial induction of the pathway by shear stress and cytokines (IFN-γ, 20 ng/ml; TNF-α, 50 ng/ml). In this low-performance human amniotic MSC line, TSG6 was induced by shear stress only. IDO was induced by IFN-γ only. hAF MSC, human amniotic fluid MSC.
as §1

## CC(C)(C)c1ccc(S(=O)(=O)/C=C/C#N)cc1 [BAY11-7085]
COX2 protein
  shear-induced intracellular COX2 protein (Western blot): abrogated; also recorded: reduced
[1]
  ability of shear treated MSC to suppress TNF-α production: abrogate the positive effects of shear stress

## COc1ccc2c(c1)c(CC(=O)O)c(C)n2C(=O)c1ccc(Cl)cc1 [Indomethacin]
[1]
  ability of shear treated MSC to suppress TNF-α production: abrogate the positive effects of shear stress

## CS(=O)(=O)Nc1ccc([N+](=O)[O-])cc1OC1CCCCC1 [NS-398]
[1]
  ability of shear treated MSC to suppress TNF-α production: abrogate the positive effects of shear stress

## CCCCC(C)(C)C(O)C=CC1C(O)CC(=O)C1CC=CCCCC(=O)O (stereo not shown) [dmPGE2, 16,16′-dimethyl prostaglandin E2]
[1]; dmPGE2 10 μM
  TNF-α production with ectopic dmPGE2: reduced TNF-α to levels produced in the presence of sheared MSCs; also recorded: mimics MSC suppression

## IFN-γ: cytokine used as priming agent
Human amniotic fluid MSC; IFN-γ 20 ng/ml, low-performance human amniotic MSC line
  IDO induction: induced
Human amniotic fluid MSC; addition of IFN-γ to sheared MSCs versus MSC not subject to shear
  induction of COX2 and HMOX1 in sheared MSCs with added priming agent: greater induction
